Values of other authors as cited in US20130096134A1, “HETEROCYCLIC COMPOUNDS AND THEIR USES” (Amgen Inc., priority 2010, published 2013).

What was measured:
[1] = tested on: mouse model of rheumatoid arthritis; conditions: in vivo
[2] = tested on: model of systemic lupus erythematosis; conditions: in vivo
p110δ = target: T1, p110δ (Homo sapiens, UniProt O00329)
T1 sequence (O00329 1-1044): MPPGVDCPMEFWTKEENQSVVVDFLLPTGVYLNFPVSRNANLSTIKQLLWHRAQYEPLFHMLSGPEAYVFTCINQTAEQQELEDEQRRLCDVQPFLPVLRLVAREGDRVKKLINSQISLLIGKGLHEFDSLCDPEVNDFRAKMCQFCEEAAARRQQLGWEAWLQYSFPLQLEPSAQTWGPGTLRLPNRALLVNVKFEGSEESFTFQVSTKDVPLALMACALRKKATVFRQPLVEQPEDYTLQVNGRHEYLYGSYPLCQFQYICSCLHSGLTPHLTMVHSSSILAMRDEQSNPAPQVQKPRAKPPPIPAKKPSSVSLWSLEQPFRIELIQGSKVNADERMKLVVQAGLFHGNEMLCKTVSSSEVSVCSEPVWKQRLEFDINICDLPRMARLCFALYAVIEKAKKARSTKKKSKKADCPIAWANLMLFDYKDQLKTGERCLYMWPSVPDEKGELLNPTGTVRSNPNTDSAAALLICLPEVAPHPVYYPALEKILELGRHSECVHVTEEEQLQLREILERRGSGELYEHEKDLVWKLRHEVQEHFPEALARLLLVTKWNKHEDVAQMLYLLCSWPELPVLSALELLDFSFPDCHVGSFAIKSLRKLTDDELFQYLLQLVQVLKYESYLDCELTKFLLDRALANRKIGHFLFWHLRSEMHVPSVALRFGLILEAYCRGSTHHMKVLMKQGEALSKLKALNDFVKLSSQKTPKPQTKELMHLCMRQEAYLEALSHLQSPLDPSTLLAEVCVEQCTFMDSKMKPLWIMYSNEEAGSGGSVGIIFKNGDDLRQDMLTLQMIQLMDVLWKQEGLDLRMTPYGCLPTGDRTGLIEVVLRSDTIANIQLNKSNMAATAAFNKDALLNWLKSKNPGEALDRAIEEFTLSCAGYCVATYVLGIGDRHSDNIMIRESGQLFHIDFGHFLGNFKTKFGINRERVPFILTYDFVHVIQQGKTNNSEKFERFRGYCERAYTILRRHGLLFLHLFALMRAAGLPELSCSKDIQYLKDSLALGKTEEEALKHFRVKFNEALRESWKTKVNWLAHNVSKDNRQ

murine model of asthma = conditions: ovalbumin-induced airway inflammation

Compound | efficacy in a mouse model of rheumatoid arthritis [1] | onset of disease in a model of systemic lupus erythematosis [2] | inhibition of p110δ (p110δ) | activity against any protein kinases tested (protein kinases) | inflammation and disease in a murine model of asthma (murine model of asthma)
O=C1NC(=O)/C(=C\c2ccc3nccnc3c2)S1 [AS 605240] | efficacious | delay onset of disease |  |  | 
Cc1ccccc1-n1c(Cn2cnc3c(N)ncnc32)nc2cccc(C)c2c1=O [IC87114] |  |  | high nanomolar range (triple digit) | no activity | significantly ameliorate inflammation and disease
